Values joined by “and” are separate entries in the source; they are usually repeats but may differ in a detail not shown here. Identical values can stand only once.
Conditions: for speed of sound / mass density / viscosity / vapor or sublimation pressure: Liquid; for speed of sound: Frequency=3 MHz, Single path-length method; for mass density: Vibrating tube method; for surface tension liquid-gas: Drop volume; for viscosity: Capillary tube (Ostwald / Ubbelohde) method; for vapor or sublimation pressure: Ebulliometric method (Recirculating still)

CCc1ccco1 [2-ethylfuran]
Conditions	mass density	speed of sound [m/s]	viscosity [mPa·s]
313.15 K, 100 kPa	882.52 kg/m3 and 882.49 kg/m3	1129.2	–
313.15 K, 2000 kPa	884.62 kg/m3	–	–
313.15 K, 5000 kPa	887.63 kg/m3	–	–
313.15 K, 7000 kPa	889.75 kg/m3	–	–
313.15 K, 10000 kPa	892.61 kg/m3	–	–
313.15 K, 15000 kPa	897.4 kg/m3	–	–
313.15 K, 20000 kPa	901.8 kg/m3	–	–
313.15 K, 25000 kPa	906.18 kg/m3	–	–
313.15 K, 30000 kPa	910.18 kg/m3	–	–
313.15 K, 35000 kPa	914.06 kg/m3	–	–
313.15 K, 40000 kPa	917.85 kg/m3	–	–
313.15 K, 45000 kPa	921.58 kg/m3	–	–
313.15 K, 50000 kPa	925.04 kg/m3	–	–
313.15 K, 55000 kPa	928.5 kg/m3	–	–
313.15 K, 60000 kPa	931.93 kg/m3	–	–
313.15 K, 65000 kPa	935.06 kg/m3	–	–
315.65 K, 100 kPa	879.73 kg/m3	1118.1	0.4049
318.15 K, 100 kPa	876.92 kg/m3 and 876.88 kg/m3	1107.4	0.3962
318.15 K, 2000 kPa	879.13 kg/m3	–	–
318.15 K, 5000 kPa	882.2 kg/m3	–	–
318.15 K, 7000 kPa	884.37 kg/m3	–	–
318.15 K, 10000 kPa	887.44 kg/m3	–	–
318.15 K, 15000 kPa	892.29 kg/m3	–	–
318.15 K, 20000 kPa	896.91 kg/m3	–	–
318.15 K, 25000 kPa	901.27 kg/m3	–	–
318.15 K, 30000 kPa	905.42 kg/m3	–	–
318.15 K, 35000 kPa	909.5 kg/m3	–	–
318.15 K, 40000 kPa	913.4 kg/m3	–	–
318.15 K, 45000 kPa	917.1 kg/m3	–	–
318.15 K, 50000 kPa	920.67 kg/m3	–	–
318.15 K, 55000 kPa	924.18 kg/m3	–	–
318.15 K, 60000 kPa	927.71 kg/m3	–	–
318.15 K, 65000 kPa	930.91 kg/m3	–	–
320.65 K, 100 kPa	874.11 kg/m3	1096.5	0.3885
323.15 K, 100 kPa	871.29 kg/m3 and 871.23 kg/m3	1085.6	0.3794
323.15 K, 2000 kPa	873.56 kg/m3	–	–
323.15 K, 5000 kPa	876.77 kg/m3	–	–
323.15 K, 7000 kPa	878.96 kg/m3	–	–
323.15 K, 10000 kPa	882.17 kg/m3	–	–
323.15 K, 15000 kPa	887.15 kg/m3	–	–
323.15 K, 20000 kPa	891.93 kg/m3	–	–
323.15 K, 25000 kPa	896.47 kg/m3	–	–
323.15 K, 30000 kPa	900.65 kg/m3	–	–
323.15 K, 35000 kPa	904.8 kg/m3	–	–
323.15 K, 40000 kPa	908.8 kg/m3	–	–
323.15 K, 45000 kPa	912.67 kg/m3	–	–
323.15 K, 50000 kPa	916.35 kg/m3	–	–
323.15 K, 55000 kPa	919.97 kg/m3	–	–
323.15 K, 60000 kPa	923.48 kg/m3	–	–
323.15 K, 65000 kPa	926.81 kg/m3	–	–
325.65 K, 100 kPa	868.46 kg/m3	1074.8	0.3706
328.15 K, 100 kPa	865.62 kg/m3 and 865.59 kg/m3	1063.8	0.3619
328.15 K, 2000 kPa	867.92 kg/m3	–	–
328.15 K, 5000 kPa	871.27 kg/m3	–	–
328.15 K, 7000 kPa	873.57 kg/m3	–	–
328.15 K, 10000 kPa	876.84 kg/m3	–	–
328.15 K, 15000 kPa	882.03 kg/m3	–	–
328.15 K, 20000 kPa	886.97 kg/m3	–	–
328.15 K, 25000 kPa	891.57 kg/m3	–	–
328.15 K, 30000 kPa	895.96 kg/m3	–	–
328.15 K, 35000 kPa	900.23 kg/m3	–	–
328.15 K, 40000 kPa	904.35 kg/m3	–	–
328.15 K, 45000 kPa	908.24 kg/m3	–	–
328.15 K, 50000 kPa	912.04 kg/m3	–	–
328.15 K, 55000 kPa	915.63 kg/m3	–	–
328.15 K, 60000 kPa	919.32 kg/m3	–	–
328.15 K, 65000 kPa	922.64 kg/m3	–	–
330.65 K, 100 kPa	862.76 kg/m3	1053.7	0.3536
333.15 K, 100 kPa	859.9 kg/m3 and 859.9 kg/m3	1042.2	0.3455
333.15 K, 2000 kPa	862.3 kg/m3	–	–
333.15 K, 5000 kPa	865.81 kg/m3	–	–
333.15 K, 7000 kPa	868.2 kg/m3	–	–
333.15 K, 10000 kPa	871.58 kg/m3	–	–
333.15 K, 15000 kPa	876.87 kg/m3	–	–
333.15 K, 20000 kPa	881.93 kg/m3	–	–
333.15 K, 25000 kPa	886.74 kg/m3	–	–
333.15 K, 30000 kPa	891.26 kg/m3	–	–
333.15 K, 35000 kPa	895.59 kg/m3	–	–
333.15 K, 40000 kPa	899.79 kg/m3	–	–
333.15 K, 45000 kPa	903.78 kg/m3	–	–
333.15 K, 50000 kPa	907.66 kg/m3	–	–
333.15 K, 55000 kPa	911.34 kg/m3	–	–
333.15 K, 60000 kPa	915.07 kg/m3	–	–
333.15 K, 65000 kPa	918.6 kg/m3	–	–
335.65 K, 100 kPa	857.02 kg/m3	1032.1	0.3372
338.15 K, 100 kPa	854.13 kg/m3 and 854.07 kg/m3	1020.5	0.33
338.15 K, 2000 kPa	856.63 kg/m3	–	–
338.15 K, 5000 kPa	860.21 kg/m3	–	–
338.15 K, 7000 kPa	862.69 kg/m3	–	–
338.15 K, 10000 kPa	866.19 kg/m3	–	–
338.15 K, 15000 kPa	871.73 kg/m3	–	–
338.15 K, 20000 kPa	876.98 kg/m3	–	–
338.15 K, 25000 kPa	881.86 kg/m3	–	–
338.15 K, 30000 kPa	886.43 kg/m3	–	–
338.15 K, 35000 kPa	890.92 kg/m3	–	–
338.15 K, 40000 kPa	895.2 kg/m3	–	–
338.15 K, 45000 kPa	899.36 kg/m3	–	–
338.15 K, 50000 kPa	903.34 kg/m3	–	–
338.15 K, 55000 kPa	907.07 kg/m3	–	–
338.15 K, 60000 kPa	910.92 kg/m3	–	–
338.15 K, 65000 kPa	914.41 kg/m3	–	–

Conditions	surface tension liquid-gas [mN/m]	vapor or sublimation pressure [kPa]
315.65 K	22.66	–
317.62 K	–	18.64
318.15 K	22.3	–
320.45 K	–	20.98
320.65 K	22.07	–
322.48 K	–	22.8
323.15 K	21.77	–
324.89 K	–	25.18
325.65 K	21.4	–
327.06 K	–	27.46
328.15 K	21.08	–
329.8 K	–	30.6
330.65 K	20.87	–
331.39 K	–	32.49
333.15 K	20.5	–
333.19 K	–	34.85
334.73 K	–	36.94
335.65 K	20.28	–
336.84 K	–	39.92
338.15 K	19.95	–
338.83 K	–	42.91
340.3 K	–	45.25
342.6 K	–	49.13
344.85 K	–	53.18
347.05 K	–	57.4
348.94 K	–	61.22
350.71 K	–	64.98
352.9 K	–	69.89
354.83 K	–	74.51
356.8 K	–	79.34
358.65 K	–	84.17
360.61 K	–	89.59
361.79 K	–	92.94
362.46 K	–	94.88
363.67 K	–	98.45
364.18 K	–	100.08
364.61 K	–	101.33

From the NIST ThermoML archive (doi:10.1021/acs.jced.8b00153)
